Molecular target: T1, human mPGES-1 (Homo sapiens, UniProt O14684)
T1 sequence (O14684 1-152): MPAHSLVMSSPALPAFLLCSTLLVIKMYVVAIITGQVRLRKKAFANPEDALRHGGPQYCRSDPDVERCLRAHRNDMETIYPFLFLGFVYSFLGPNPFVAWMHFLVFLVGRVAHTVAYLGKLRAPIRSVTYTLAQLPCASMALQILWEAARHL
Assay: Microsomal prostaglandin E synthase biochemical assay
Conditions: microsome preparation containing human mPGES-1; PGH2 10.8 μM, GSH 2.5 mM, pH 6.8; PGE2 by HTRF; average of at least n=2
Procedure: Compounds were tested as inhibitors of microsomal prostaglandin E synthase activity in microsomal prostaglandin E synthase assays and whole cell assays. These assays measure prostaglandin E2 (PGE2) synthesis which is taken as a measure of prostaglandin E synthase activity. Microsomal prostaglandin E synthase biochemical assays used microsomal prostaglandin E synthase-1 in microsomal preparations. The source of the microsomes can be for example interleukin-1β-stimulated human A549 cells (which express human mPGES-1) or Sf9 cells transfected with plasmids encoding human mPGES-1 cDNA. The whole blood assay [described by Patrignani, P. et al., Journal of Pharmacology and Experimental Therapeutics, 1994, vol. 271, pp 1705-1712] was used as the whole cell assay for testing the compounds. Whole blood provides a protein and cell rich milieu for the study of biochemical efficacy of anti-inflammatory compounds such as prostaglandin synthase inhibitors. To study the inhibitory activities of these compounds, human blood was stimulated with lipopolysaccharide (LPS) for typically 16 hours to induce mPGES-1 expression, after which the concentration of produced PGE2 was measured by competitive-immuno assay (homogeneous time-resolved fluorescence, HTRF) as read out for effectiveness against mPGES-1-dependent PGE2 production.
Microsomal Prostaglandin E Synthase Biochemical Assay
A solution of test compound was added to a diluted microsome preparation containing human mPGES-1 and pre-incubated for 15 minutes in potassium phosphate buffer pH 6.8 with cofactor glutathione (GSH). Corresponding solutions without test compound were used as positive controls, and corresponding solutions without test compound and without microsomes were used as negative controls. The enzymatic reaction was then started by addition of the substrate PGH2 in an organic solution (dry acetonitrile).
The typical reaction conditions of the enzymatic reaction were thus: Test compound: ranging from 60 μM to 0.002 μM, or zero in positive and negative controls; potassium phosphate buffer pH 6.8: 50 mM; GSH: 2.5 mM; mPGES-1-containing microsomes: 2 μg/mL (sample and positive controls) or 0 μg/mL (negative control); PGH2: 10.8 μM; Acetonitrile: 7.7% (v/v); DMSO: 0.6% (v/v). The reaction was stopped after one minute by adding an acidic solution (pH 1.9) of ferric chloride and citrate (final concentrations 7 mM and 47 mM respectively), by which the PGH2 was sequestered (the PGH2 is reduced to mainly 12-hydroxy heptadecatrineoic acid (12-HHT) which is not detected by the subsequent PGE2 detection step). The resulting solution was then pH neutralized by addition of potassium phosphate buffer, prior to diluting an aliquot of the resulting solution in a weak potassium phosphate buffer (50 mM, pH 6.8) containing 0.2% BSA (w/v). [Adapted from Jacobsson et al., Proc. Natl. Acad. Sci. USA, 1999, vol. 96, pp. 7220-7225]The PGE2 formed was quantified by use of a commercial HTRF based kit (catalogue #62PG2PEC or #62P2APEC from Cisbio International). 100% activity was defined as the PGE2 production in positive controls subtracted by the PGE2 production in the negative controls. IC50 values were then determined using standard procedures.
The potency is expressed as IC50 and the value indicated is an average of at least n=2.

Row | SMILES | IC50 [µM]
1 | NS(=O)(=O)c1cccc(F)c1NS(=O)(=O)/C=C/c1cccc(Cl)c1 [Example 64, 2-[[(E)-2-(3-Chlorophenyl)ethenyl]sulfonylamino]-3-fluoro-benzenesulfonamide] | 3.1
2 | NS(=O)(=O)c1cccc(F)c1NS(=O)(=O)/C=C/c1cccc(C(F)(F)F)c1 [Example 65, 3-Fluoro-2-[[(E)-2-[3-(trifluoromethyl)phenyl]ethenyl]sulfonylamino]-benzenesulfonamide] | 3.8
3 | NS(=O)(=O)c1c(F)cccc1NS(=O)(=O)/C=C/c1cccc(C(F)(F)F)c1 [Example 66, 2-Fluoro-6-[[(E)-2-[3-(trifluoromethyl)phenyl]ethenyl]sulfonylamino]-benzenesulfonamide] | 6.2
4 | NS(=O)(=O)c1ccc(F)cc1NS(=O)(=O)/C=C/c1ccccc1F [Example 67, 4-Fluoro-2-[[(E)-2-(2-fluorophenyl)ethenyl]sulfonylamino]benzenesulfonamide] | 6.4
5 | Cc1ccc(NS(=O)(=O)/C=C/c2cccc(C(F)(F)F)c2)c(S(N)(=O)=O)c1 [Example 68, 5-Methyl-2-[[(E)-2-[3-(trifluoromethyl)phenyl]ethenyl]sulfonylamino]-benzenesulfonamide] | 9.1
6 | NS(=O)(=O)c1ccccc1NS(=O)(=O)CCc1ccc(C2CCCC2)cc1 [Example 69, 2-[2-(4-Cyclopentylphenyl)ethylsulfonylamino]benzenesulfonamide] | 0.27
7 | CC(C)(C)c1ccc(CCS(=O)(=O)Nc2ccccc2S(N)(=O)=O)cc1 [Example 70, 2-[2-(4-Tert-butylphenyl)ethylsulfonylamino]benzenesulfonamide] | 0.22
8 | CC(C)(C)c1ccc(CCS(=O)(=O)Nc2cc(F)ccc2S(N)(=O)=O)cc1 [Example 71, 4-Fluoro-2-[2-(4-tert-butylphenyl)ethylsulfonylamino]benzenesulfonamide] | 0.3
9 | NS(=O)(=O)c1ccccc1NS(=O)(=O)CCc1ccc(Cl)cc1 [Example 72, 2-[2-(4-Chlorophenyl)ethylsulfonylamino]benzenesulfonamide] | 0.49
10 | NS(=O)(=O)c1ccccc1NS(=O)(=O)/C=C/c1ccc(Cl)cc1 [Example 73, 2-[[(E)-2-(4-Chlorophenyl)ethenyl]sulfonylamino]benzenesulfonamide] | 0.29
11 | NS(=O)(=O)c1ccccc1NS(=O)(=O)CCc1ccccc1 [Example 74, 2-(Phenethylsulfonylamino)benzenesulfonamide] | 9.8
12 | NS(=O)(=O)c1ccccc1NS(=O)(=O)/C=C/c1ccccc1 [Example 75, 2-[[(E)-2-Phenylethenyl]sulfonylamino]benzenesulfonamide] | 2.6
13 | NS(=O)(=O)c1ccccc1NS(=O)(=O)CCc1ccccc1Cl [Example 76, 2-[2-(2-Chlorophenyl)ethylsulfonylamino]benzenesulfonamide] | 1.2
14 | COc1ccc(/C=C/S(=O)(=O)Nc2ccccc2S(N)(=O)=O)cc1 [Example 77, 2-[[(E)-2-(4-Methoxyphenyl)ethenyl]sulfonylamino]benzenesulfonamide] | 3.1
15 | NS(=O)(=O)c1ccc(F)cc1NS(=O)(=O)/C=C/c1ccc(Cl)cc1 [Example 78, 2-[[(E)-2-(4-Chlorophenyl)ethenyl]sulfonylamino]-4-fluoro-benzenesulfonamide] | 0.35
16 | CC(CS(=O)(=O)Nc1ccccc1S(N)(=O)=O)c1ccccc1 (stereo not shown) [Example 79, 2-(2-Phenylpropylsulfonylamino)benzenesulfonamide] | 9.9
17 | NS(=O)(=O)c1c(F)cccc1NS(=O)(=O)/C=C/c1ccc(Cl)cc1 [Example 80, 2-[[(E)-2-(4-Chlorophenyl)ethenyl]sulfonylamino]-6-fluoro-benzenesulfonamide] | 0.57

Row | SMILES | IC50 [µM]
18 | NS(=O)(=O)c1ccccc1NS(=O)(=O)/C=C/c1c(Cl)cccc1Cl [Example 81, 2-[[(E)-2-(2,6-Dichlorophenyl)ethenyl]sulfonylamino]benzenesulfonamide] | 2.9
19 | Cc1ccc(/C=C/S(=O)(=O)Nc2ccccc2S(N)(=O)=O)cc1 [Example 82, 2-[[(E)-2-(4-Methylphenyl)ethenyl]sulfonylamino]benzenesulfonamide] | 7.3
20 | COc1ccccc1/C=C/S(=O)(=O)Nc1ccccc1S(N)(=O)=O [Example 83, 2-[[(E)-2-(2-Methoxyphenyl)ethenyl]sulfonylamino]benzenesulfonamide] | 0.43
21 | NS(=O)(=O)c1ccccc1NS(=O)(=O)/C=C/c1ccc2ccccc2c1 [Example 84, 2-[[(E)-2-Naphthalen-2-ylethenyl]sulfonylamino]benzenesulfonamide] | 0.19
22 | NS(=O)(=O)c1ccc(F)cc1NS(=O)(=O)CCc1ccc(Cl)cc1 [Example 85, 2-[2-(4-Chlorophenyl)ethylsulfonylamino]-4-fluoro-benzenesulfonamide] | 0.8
23 | C/C(=C\S(=O)(=O)Nc1ccccc1S(N)(=O)=O)c1ccc(Cl)cc1 [Example 86, 2-[[(E)-2-(4-Chlorophenyl)prop-1-enyl]sulfonylamino]benzenesulfonamide] | 0.7
24 | C=C(CS(=O)(=O)Nc1ccccc1S(N)(=O)=O)c1ccc(Cl)cc1 [Example 87, 2-[2-(4-Chlorophenyl)prop-2-enylsulfonylamino]benzenesulfonamide] | 2.4
25 | NS(=O)(=O)c1c(F)cccc1NS(=O)(=O)/C=C/c1ccc2ccccc2c1 [Example 88, 2-Fluoro-6-[[(E)-2-naphthalen-2-ylethenyl]sulfonylamino]benzenesulfonamide] | 1.3
26 | NS(=O)(=O)c1c(F)cccc1NS(=O)(=O)/C=C/c1ccccc1C(F)(F)F [Example 89, 2-Fluoro-6-[[(E)-2-[2-(trifluoromethyl)phenyl]ethenyl]sulfonylamino]-benzenesulfonamide] | 2.8
27 | NS(=O)(=O)c1c(F)cccc1NS(=O)(=O)/C=C/c1ccc(C(F)(F)F)cc1 [Example 90, 2-Fluoro-6-[[(E)-2-[4-(trifluoromethyl)phenyl]ethenyl]sulfonylamino]-benzenesulfonamide] | 0.87
28 | NS(=O)(=O)c1c(F)cccc1NS(=O)(=O)/C=C/c1ccc(Br)cc1 [Example 91, 2-[[(E)-2-(4-Bromophenyl)ethenyl]sulfonylamino]-6-fluoro-benzenesulfonamide] | 0.31
29 | NS(=O)(=O)c1ccc(F)cc1NS(=O)(=O)/C=C/c1ccc2ccccc2c1 [Example 92, 4-Fluoro-2-[[(E)-2-naphthalen-2-ylethenyl]sulfonylamino]benzenesulfonamide] | 0.091
30 | NS(=O)(=O)c1ccc(F)cc1NS(=O)(=O)/C=C/c1ccccc1C(F)(F)F [Example 93, 4-Fluoro-2-[[(E)-2-[2-(trifluoromethyl)phenyl]ethenyl]sulfonylamino]-benzenesulfonamide] | 0.65
31 | NS(=O)(=O)c1ccc(F)cc1NS(=O)(=O)/C=C/c1ccc(C(F)(F)F)cc1 [Example 94, 4-Fluoro-2-[[(E)-2-[4-(trifluoromethyl)phenyl]ethenyl]sulfonylamino]-benzenesulfonamide] | 0.65
32 | NS(=O)(=O)c1ccc(F)cc1NS(=O)(=O)/C=C/c1ccc(Br)cc1 [Example 95, 2-[[(E)-2-(4-Bromophenyl)ethenyl]sulfonylamino]-4-fluoro-benzenesulfonamide] | 0.31
33 | Cc1ccc(NS(=O)(=O)/C=C/c2ccc3ccccc3c2)c(S(N)(=O)=O)c1 [Example 96, 5-Methyl-2-[[(E)-2-naphthalen-2-ylethenyl]sulfonylamino]benzenesulfonamide] | 4.8
34 | Cc1ccc(NS(=O)(=O)/C=C/c2ccc(C(F)(F)F)cc2)c(S(N)(=O)=O)c1 [Example 97, 5-Methyl-2-[[(E)-2-[4-(trifluoromethyl)phenyl]ethenyl]sulfonylamino]-benzenesulfonamide] | 3.4
